These are literature values, as cited in US20230295082A1, “MODIFIED EZETIMIBE DRUG FOR CANCER TREATMENT” (University of South Africa, priority 2020, published 2023).

The target of series [1] is Mdm2 p53-binding domain (Homo sapiens, UniProt Q00987). To be noted: applicant's previous work.
The subject of series [2] is cancer cell lines, especially those that overexpress Mdm2.

Chain of Mdm2 p53-binding domain (Q00987 26-109 limits assumed): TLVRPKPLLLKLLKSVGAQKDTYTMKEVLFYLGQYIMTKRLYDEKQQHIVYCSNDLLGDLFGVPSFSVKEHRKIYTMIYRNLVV

Regarding `O=C1[C@H](CC[C@H](O)c2ccc(F)cc2)[C@@H](c2ccc(O)cc2)N1c1ccc(F)cc1` [ezetimibe], the “binding to the Mdm2 hydrophobic pocket relative to nutlins” value in series [1] is “bind more strongly than nutlins”. For the same compound, the “toxicity to cancer cell lines” value in series [2] is reported as “toxic to cancer cell lines”.
